# Structures can show the parent of a compound that is named as a salt. Where two headings read alike, the source gives them in different places.
# System: murine neural precursor cells (neurosphere cultures)
# Assay: HTS of LOPAC library against secondary neurosphere cultures, MTT proliferation assay at 3 μM, day 7 (z score, P value)
# Format: cell-based, mouse
# [1] = LOPAC primary screen, neurosphere MTT proliferation, 3 μM, day 7
# [2] = yes/no: significantly inhibited neurosphere proliferation (P<0.01) in primary screen
# [3] = yes/no: significantly inhibited neurosphere proliferation in primary screen
# [4] = LOPAC library screen at 3 μM, secondary neurosphere cultures, MTT
# [5] = LOPAC library screen, 3 μM, MTT, secondary neurosphere cultures, day 7
# [6] = yes/no: significantly inhibited neurosphere proliferation (P<0.01) in the primary screen
# [7] = LOPAC screen, neurosphere MTT proliferation, 3 μM, day 7
# [8] = LOPAC library screen, 3 μM, MTT, neurosphere cultures
# [9] = yes/no: significantly inhibited neurosphere proliferation in the primary screen
# [10] = primary LOPAC screen, 3 μM, MTT, neurosphere proliferation
# [11] = yes = significantly inhibited neurosphere proliferation (P<0.01) in the primary screen
# [12] = LOPAC library screen at 3 μM, MTT, secondary neurosphere cultures, screened in singlets
compound,measurement,setting,value
Cl.Clc1cc(I)cc(Cl)c1NC1=NCCN1 [p-Iodoclonidine hydrochloride],Z Score,,−0.1606
same,Z score,[1],−0.161
same,Activity,[2],no
Br.Oc1cc2c(c(Cl)c1O)CCNCC2c1ccccc1 (racemic) [(±)-6-Chloro-PB hydrobromide],Z score,[1],−2.267
same,Activity,[3],no
(S)-Propranolol hydrochloride,Z Score,[4],−0.5346
same,Z score,[1],−0.535
same,Activity,[3],no
CN1[C@@H]2CC[C@H]1C[C@@H](OC(c1ccccc1)c1ccccc1N)C2 (stereo partly drawn) [Aminobenztropine],Z Score,[5],−1.455
same,Z score,[1],−1.455
same,Activity,[6],no
C[C@@H]1O[C@@H](O[C@H]2C[C@@H](O)[C@]3(CO)[C@H]4[C@H](O)C[C@]5(C)[C@@H]([C@@H]6COC(=O)C6)CC[C@]5(O)[C@@H]4CC[C@]3(O)C2)[C@H](O)[C@H](O)[C@H]1O [Dihydroouabain],Z Score,,0.2034
same,Z score,[7],0.203
same,Activity,[2],no
CCCCCCCCCC(=O)NC(CN1CCOCC1)[C@H](O)c1ccccc1.Cl (stereo partly drawn),Z Score,[4],−1.109
CCCCCC(O)c1cccc(OCc2ccc3ccccc3n2)c1 (stereo not drawn) [REV 5901],Z Score,"168 h, 3 µM",−1.184
same,Z score,"168 h, 3 µM",−1.184
same,Activity,[3],no
CN(C)[C@@H]1C(O)=C(C(N)=O)C(=O)[C@@]2(O)C(O)=C3C(=O)c4c(O)ccc(Cl)c4[C@@H](O)[C@H]3C[C@@H]12 [Demeclocycline hydrochloride],Z Score,[8],−0.06452
same,Z score,[7],−0.065
same,Activity,[2],no
Clc1ccc(N2CC3CCC(C2)N3)nn1 [DBO-83],Z Score,,−1.279
same,Z score,[7],−1.279
same,Activity,[2],no
O=C1O/C(=C/Br)CCC1c1cccc2ccccc12 (stereo not drawn) [Bromoenol lactone],Z Score,"168 h, 3 µM",0.2484
same,Z score,"168 h, 3 µM",0.248
same,Activity,[9],no
Nn1nnc2ccccc21 [1-Aminobenzotriazole],Z Score,"168 h, 3 µM",0.5236
same,Z score,"168 h, 3 µM",0.524
same,Activity,[9],no
Cc1cc(C)c(/C=C2\C(=O)Nc3ccccc32)[nH]1 [SU 5416],Z Score,,−0.6622
same,Z score,[1],−0.662
same,Activity,[3],no
"CCCN1CCO[C@@H]2c3cc(O)ccc3OC[C@H]21.Cl [(B1)-PD 128,907 hydrochloride]",Z Score,,1.164
N[C@@H](Cn1cc(I)c(=O)[nH]c1=O)C(=O)O [S-5-Iodowillardiine],Z Score,,−0.3551
same,Z score,[10],−0.355
same,Activity,[9],no
NC(=O)CI [Iodoacetamide],Z Score,,−8.706
same,Z score,[1],−8.706
same,Activity,[6],yes
O=C1CCc2cc(OCCCCc3nnnn3C3CCCCC3)ccc2N1 [Cilostazol],Z Score,[8],0.8219
same,Z score,[7],0.822
same,Activity,[2],no
CC(C)NCC(O)c1ccc(O)c(O)c1.Cl (stereo not drawn) [(B1)-Isoproterenol hydrochloride],Z Score,,−0.5717
CCCn1c(=O)[nH]c(=O)c2[nH]cnc21 [3-n-Propylxanthine],Z Score,[4],−1.094
same,Z score,[1],−1.094
same,Activity,[11],no
c1ccc2c(c1)CCCC2C1=NCCN1 (stereo not drawn) [Tetrahydrozoline hydrochloride],Z Score,[4],−0.4693
same,Z score,[10],−0.469
same,Activity,[9],no
"C[C@]12CC[C@@H](O)C[C@@H]1CC[C@@H]1[C@@H]2CC[C@]2(C)[C@@H](O)CC[C@@H]12 [5alpha-Androstane-3alpha, 17beta-diol]",Z Score,,−0.3811
NC(Cc1ccc(Cl)cc1)C(=O)O (stereo not drawn) [(B1)-p-Chlorophenylalanine],Z Score,,−0.2471
CN1C(C)(C)CCCC1(C)C [Pempidine tartrate],Z Score,[5],−1.719
same,Z score,[1],−1.719
same,Activity,[11],no
CCCCCCCC/C=C\CCCCCCCC(=O)O [Oleic Acid],Z Score,[4],−0.3449
NC(N)=Nc1nc(CSCCC(N)=NS(N)(=O)=O)cs1 [Famotidine],Activity,,no
same,Z Score,[8],0.05489
same,Z score,[1],0.055
CN1Cc2c(N)cccc2C(c2ccccc2)C1 (stereo not drawn) [Nomifensine maleate],Z Score,[8],0.6693
same,Z score,[1],0.669
same,Activity,[11],no
(±)-Pindobind,Z score,[1],0.257
same,Activity,[3],no
NC1CCN(O)C1=O (racemic) [(±)-HA-966],Activity,,no
same,Z score,[10],1.157
COc1ccccc1NC(=O)Nc1nc(-c2cccnc2)nc2ccccc12 [VUF 5574],Z Score,,0.5811
same,Z score,[10],0.581
same,Activity,[9],no
"COc1ccc2c(c1OC)C(=O)OC2C1c2cc3c(cc2CCN1C)OCO3 (single isomer, unassigned; (+)) [(+)-Hydrastine]",Z Score,,−0.8362
same,Z score,[1],−0.836
same,Activity,[6],no
Cl.Cl.NCCCCN [Putrescine dihydrochloride],Activity,,no
same,Z Score,,−0.7689
same,Z score,,−0.769
NCCCNCCSP(=O)(O)O [Amifostine],Z Score,"168 h, 3 µM",0.3592
same,Z score,"168 h, 3 µM",0.359
same,Activity,[11],no
Cc1ccc(Cl)c(Nc2ccccc2C(=O)O)c1Cl [Meclofenamic acid sodium],Z Score,[12],2.233
same,Z score,[1],2.233
same,Activity,[11],no
NC(CCCP(=O)(O)O)C(=O)O (stereo not drawn) [(B1)-2-Amino-5-phosphonopentanoic acid],Z Score,,−1.045
CCc1ccccc1OC[C@@H](O)CN[C@H]1CCCc2ccccc21.O=C(O)C(=O)O [SR 59230A oxalate],Z Score,[5],−1.222
same,Z score,[1],−1.222
same,Activity,[3],no
C[C@H](O)[C@H](O)[C@H]1CNc2nc(N)[nH]c(=O)c2N1.Cl,Z Score,[8],0.9757
same,Z score,[10],0.976
same,Activity,[9],no
CN(C)CCCN1c2ccccc2Sc2ccccc21 [Promazine hydrochloride],Z Score,[4],−0.8882
same,Z score,[1],−0.888
same,Activity,[6],no
O=C1CC[C@@]2(O)[C@H]3Cc4ccc(O)c5c4[C@@]2(CCN3CC2CC2)[C@H]1O5 [Naltrexone hydrochloride],Z Score,[8],0.3891
same,Z score,[1],0.389
same,Activity,[6],no
CC(C)Cn1c(=O)n(C)c(=O)c2[nH]cnc21 [3-Isobutyl-1-methylxanthine],Z Score,"168 h, 3 µM",−0.774
same,Z score,"168 h, 3 µM",−0.774
same,Activity,[2],no
C[C@H]1C[C@H]2[C@@H]3CCC4=CC(=O)C=C[C@]4(C)[C@@]3(Cl)[C@@H](O)C[C@]2(C)[C@@]1(O)C(=O)CO [Beclomethasone],Z Score,[8],0.267
same,Z score,[10],0.267
same,Activity,[9],no
c1ccc(C2CN3CCSC3=N2)cc1 (stereo not drawn) [Tetramisole hydrochloride],Z Score,[12],2.649
same,Z score,[10],2.649
same,Activity,[9],no
COc1cccc(OC)c1OCCNCC1COc2ccccc2O1.Cl (stereo not drawn) [WB-4101 hydrochloride],Z Score,,−2.247
same,Z score,[7],−2.247
same,Activity,[2],no
O=C(O)CCCCCCC1C(=O)NC(=O)N1CCC(O)C1CCCCC1 (stereo not drawn) [BW 245C],Z Score,,1.036
same,Z score,[1],1.036
same,Activity,[3],no
COc1ccc(/C=C/C(=O)Nc2ccccc2C(=O)O)cc1OC [Tranilast],Z Score,[8],0.1736
same,Z score,[10],0.174
Dextrorphan D-tartrate,Activity,,no
same,Z Score,,1.569
same,Z score,,1.569
NC1C=CC=C(C(=O)O)C1 (racemic) [Gabaculine hydrochloride],Z Score,,−2.256
same,Z score,[10],−2.256
same,Activity,[9],no

# Reference: patent publication US8058243B2, “Method for treating a brain cancer with ifenprodil” (HSC Research and Development Limited Partnership, priority 2006, dated 2011)
